Among the data in patent publication US8497266B2, “3-(3-pyrimidin-2-ylbenzyl)-1,2,4-triazolo[4,3-b]pyridazine derivatives as MET kinase inhibitors” (Merck Patent GmbH, priority 2008, dated 2013) are IC50 values, retold here.

In general, IC50 refers to the midpoint of a concentration-inhibition curve. Higher therefore signals a need for much substance.

The target of assay [1] is T1, Met kinase (Homo sapiens, UniProt P08581). The assay is described as follows: Met kinase inhibition, flashplate method (enzyme). Type of assay: biochemical. Details: 6His (N); purchased Upstate 14-526; host or cells: Sf21 insect cells (S. frugiperda), baculovirus. An excerpt: According to the manufacturer's data (Met, active, Upstate, catalogue No. 14-526), Met kinase is expressed for the purposes of protein production in insect cells (Sf21; S. frugiperda) and subsequent affinity-chromatographic purification as “N-terminal 6His-tagged” recombinant human protein in a baculovirus expression vector.
The test plates used are 96-well Flashplate® microtitre plates from Perkin Elmer (Cat. No. SMP200). The components of the kinase reaction described below are pipetted into the assay plate. The Met kinase and the substrate poly Ala-Glu-Lys-Tyr, (pAGLT, 6:2:5:1), are incubated for 3 hrs at room temperature with radioactively labelled ^33P-ATP in the presence and absence of test substances in a total volume of 100 μl. The reaction is terminated using 150 μl of a 60 mM EDTA solution. After incubation for a further 30 min at room temperature, the supernatants are filtered off with suction, and the wells are washed three times with 200 μl of 0.9% NaCl solution each time. The measurement of the bound radioactivity is carried out by means of a scintillation measuring instrument (Topcount NXT, Perkin-Elmer).
The full value used is the inhibitor-free kinase reaction. This should be approximately in the range 6000-9000 cpm. The pharmacological zero value used is staurosporin in a final concentration of 0.1 mM. The inhibitory values (IC50) are determined using the RS1_MTS program.
Kinase reaction conditions per well: • 30 μl of assay buffer • 10 μl of substance to be tested in assay buffer with 10% of DMSO • 10 μl of ATP (final concentration 1 μM cold, 0.35 μCi of ^33P-ATP) • 50 μl of Met kinase/substrate mixture in assay buffer; • (10 ng of enzyme/well, 50 ng of pAGLT/well) • Solutions used: • Assay buffer: • 50 mM HEPES • 3 mM magnesium chloride • 3 μM sodium orthovanadate • 3 mM manganese(II) chloride • 1 mM dithiothreitol (DTT) • pH=7.5 (to be set using sodium hydroxide) • Stop solution: • 60 mM Titriplex III (EDTA) • ^33P-ATP: Perkin-Elmer; • Met kinase: Upstate, Cat. No. 14-526, Stock 1 μg/10 μl; spec. activity 954 U/mg; • Poly-Ala-Glu-Lys-Tyr, 6:2:5:1: Sigma Cat. No. P1152 In-Vivo Tests
Target sequence in this assay (P08581 956-1390 limits assumed): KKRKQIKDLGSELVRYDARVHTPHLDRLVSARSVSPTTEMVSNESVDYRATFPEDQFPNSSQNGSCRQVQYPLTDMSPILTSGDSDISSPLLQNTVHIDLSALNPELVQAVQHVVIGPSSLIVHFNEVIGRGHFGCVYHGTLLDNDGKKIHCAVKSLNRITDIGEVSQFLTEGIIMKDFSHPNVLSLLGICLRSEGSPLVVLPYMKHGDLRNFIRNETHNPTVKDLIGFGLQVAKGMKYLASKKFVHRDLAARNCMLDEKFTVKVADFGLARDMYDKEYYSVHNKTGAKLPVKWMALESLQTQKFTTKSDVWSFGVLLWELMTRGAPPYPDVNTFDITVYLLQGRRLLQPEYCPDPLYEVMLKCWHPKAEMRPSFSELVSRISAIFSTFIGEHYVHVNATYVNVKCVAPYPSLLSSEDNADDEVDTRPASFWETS

The target of assay [2] is T1, Met kinase. In words: Met kinase inhibition (cell). The format is cell-based.
Target sequence in this assay (P08581 25-1390): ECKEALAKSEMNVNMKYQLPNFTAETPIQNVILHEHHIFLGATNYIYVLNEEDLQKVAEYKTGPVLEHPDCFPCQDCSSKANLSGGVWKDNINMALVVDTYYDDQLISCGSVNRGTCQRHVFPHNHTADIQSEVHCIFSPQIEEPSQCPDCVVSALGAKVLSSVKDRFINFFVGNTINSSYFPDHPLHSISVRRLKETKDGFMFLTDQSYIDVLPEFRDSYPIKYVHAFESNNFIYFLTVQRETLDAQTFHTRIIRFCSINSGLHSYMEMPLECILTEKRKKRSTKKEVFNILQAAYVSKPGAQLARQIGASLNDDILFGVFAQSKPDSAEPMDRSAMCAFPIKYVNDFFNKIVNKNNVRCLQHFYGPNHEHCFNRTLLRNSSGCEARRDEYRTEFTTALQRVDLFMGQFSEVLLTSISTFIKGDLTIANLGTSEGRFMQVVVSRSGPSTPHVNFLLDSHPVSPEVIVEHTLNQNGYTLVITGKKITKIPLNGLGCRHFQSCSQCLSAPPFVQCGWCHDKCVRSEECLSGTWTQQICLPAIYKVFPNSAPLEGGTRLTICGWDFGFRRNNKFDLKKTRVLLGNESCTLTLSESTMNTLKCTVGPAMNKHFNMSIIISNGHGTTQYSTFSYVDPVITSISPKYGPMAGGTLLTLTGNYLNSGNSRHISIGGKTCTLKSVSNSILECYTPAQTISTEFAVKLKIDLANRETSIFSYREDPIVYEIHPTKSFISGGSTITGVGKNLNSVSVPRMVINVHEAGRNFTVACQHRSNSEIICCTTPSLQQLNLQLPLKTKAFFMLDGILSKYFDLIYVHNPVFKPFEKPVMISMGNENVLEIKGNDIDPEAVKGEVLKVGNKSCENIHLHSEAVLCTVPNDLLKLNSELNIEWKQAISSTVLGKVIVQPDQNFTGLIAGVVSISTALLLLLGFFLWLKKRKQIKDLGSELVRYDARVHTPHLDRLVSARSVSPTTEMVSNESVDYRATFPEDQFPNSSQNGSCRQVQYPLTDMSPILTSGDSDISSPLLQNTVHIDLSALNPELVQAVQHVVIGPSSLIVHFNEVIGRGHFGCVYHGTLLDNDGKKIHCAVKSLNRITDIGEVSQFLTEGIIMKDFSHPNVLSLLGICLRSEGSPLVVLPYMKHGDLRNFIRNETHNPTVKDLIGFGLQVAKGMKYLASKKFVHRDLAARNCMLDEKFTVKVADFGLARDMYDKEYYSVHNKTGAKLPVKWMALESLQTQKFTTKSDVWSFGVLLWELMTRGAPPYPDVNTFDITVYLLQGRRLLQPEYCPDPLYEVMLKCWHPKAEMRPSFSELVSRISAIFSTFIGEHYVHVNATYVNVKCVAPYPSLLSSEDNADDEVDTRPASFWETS

Turning to `N#Cc1cccc(-c2ccc3nnc(C(F)(F)c4cccc(-c5ncc(-c6cnn(CCN7CCCC7)c6)cn5)c4)n3n2)c1` [Compound A19], the half-inhibitory concentration (IC50) against Met kinase [1] and at Met kinase [2] was 1 to 100 nM in each case.
For `N#Cc1cccc(-c2ccc3nnc(Cc4cccc(-c5ncc(-c6cnn(CCN7CCCC7)c6)cn5)c4)n3n2)c1` [Compound A20], the IC50 against Met kinase [1] and at Met kinase [2] was 1 to 100 nM in each case.
Turning to `Cc1ccc2nnc(C(F)(F)c3cccc(-c4ncc(-c5cnn(CCN6CCCC6)c5)cn4)c3)n2n1` [Compound A21], the IC50 against Met kinase [1] and on Met kinase [2] was 1 to 100 nM in each case.
For `CC(c1cccc(-c2ncc(-c3cnn(CCN4CCCC4)c3)cn2)c1)c1nnc2ccc(-c3cnn(C)c3)nn12` (stereo not shown) [Compound A22], the IC50 against Met kinase [1] and on Met kinase [2] was 1 to 100 nM throughout.
Regarding `CN1CCN(c2cnc(-c3cccc(C(F)(F)c4nnc5ccc(-c6cccc(C#N)c6)nn45)c3)nc2)CC1` [Compound A23], the concentration for half-maximal inhibition (IC50) against Met kinase [1] and against Met kinase [2] was 1 to 100 nM in each case.
As for `N#Cc1cccc(-c2ccc3nnc(C(F)(F)c4cccc(-c5ncc(N6CCNCC6)cn5)c4)n3n2)c1` [Compound A24], the IC50 against Met kinase [1] and against Met kinase [2] was 1 to 100 nM each time.
On to `Cc1ccc2nnc(C(F)(F)c3cccc(-c4ncc(N5CCN(C)CC5)cn4)c3)n2n1` [Compound A25], for which the IC50 at Met kinase [1] and on Met kinase [2] was 1 to 100 nM throughout.
For `Cn1cc(-c2ccc3nnc(C(F)(F)c4cccc(-c5ncccn5)c4)n3n2)cn1` [Compound A26, 3-[difluoro-(3-pyrimidin-2-ylphenyl)methyl]-6-(1-methyl-1H-pyrazol-4-yl)-1,2,4-triazolo[4,3-b]pyridazine], the IC50 on Met kinase [1] and at Met kinase [2] was 1 to 100 nM throughout.
Consider `Cc1ccc2nnc(C(F)(F)c3cccc(-c4ncc(Br)cn4)c3)n2n1` [Compound A27, 3-{[3-(5-bromopyrimidin-2-yl)phenyl]difluoromethyl}-6-methyl-1,2,4-triazolo[4,3-b]pyridazine], for which the IC50 on Met kinase [1] and at Met kinase [2] was 1 to 100 nM throughout.
With `Cc1ccc2nnc(C(F)(F)c3cccc(-c4ncc(OCC5CCN(C)CC5)cn4)c3)n2n1` [Compound A41, 3-(difluoro-{3-[5-(1-methylpiperidin-4-ylmethoxy)pyrimidin-2-yl]phenyl}methyl)-6-methyl-1,2,4-triazolo[4,3-b]pyridazine], the 50% inhibitory concentration (IC50) against Met kinase [1] and at Met kinase [2] was 1 to 100 nM throughout.
With `OCCn1cc(-c2ccc3nnc(Cc4cccc(-c5ncc(Br)cn5)c4)n3n2)cn1` [Compound A43, 2-(4-{3-[3-(5-bromopyrimidin-2-yl)benzyl]-1,2,4-triazolo-[4,3-b]pyridazin-6-yl}pyrazol-1-yl)ethanol], the IC50 against Met kinase [1] and against Met kinase [2] was 1 to 100 nM in each case.
